Experimental data reported in the NIST ThermoML archive (doi:10.1016/j.jct.2011.01.014).
± gives the expanded uncertainty stated by the source.

Test: xn = mol fraction of the nth substance listed
Settings: 101 kPa, Liquid; for speed of sound: sound velocity cell; for mass density: Vibrating tube method

SMILES: CC(=O)[O-].[NH3+]CCO [2-hydroxyethylammonium acetate] + CCO
- speed of sound (295.65 K, x1 = 0.603): 1582 ± 2.3 m/s
- speed of sound (295.65 K, x1 = 0.6765): 1626.8 ± 2.4 m/s
- speed of sound (295.65 K, x1 = 0.7918): 1686.5 ± 2.7 m/s
- speed of sound (295.65 K, x1 = 0.8825): 1734.5 ± 2.9 m/s
- speed of sound (295.65 K, x1 = 0.9539): 1778 ± 3.1 m/s
- speed of sound (295.65 K, x1 = 1): 1796.8 ± 3.2 m/s
- mass density (298.15 K, x1 = 0.0497): 821.798 ± 0.7 kg/m3
- mass density (298.15 K, x1 = 0.101): 854.902 ± 0.59 kg/m3
- mass density (298.15 K, x1 = 0.201): 909.701 ± 0.55 kg/m3
- mass density (298.15 K, x1 = 0.3009): 956.936 ± 0.53 kg/m3
- mass density (298.15 K, x1 = 0.4057): 999.015 ± 0.59 kg/m3
- mass density (298.15 K, x1 = 0.4946): 1029.72 ± 0.72 kg/m3
- mass density (298.15 K, x1 = 0.603): 1062.53 ± 0.98 kg/m3
- mass density (298.15 K, x1 = 0.6765): 1082.31 ± 1.2 kg/m3
- mass density (298.15 K, x1 = 0.7918): 1110.26 ± 1.6 kg/m3
- mass density (298.15 K, x1 = 0.8825): 1129.61 ± 2 kg/m3
- mass density (298.15 K, x1 = 0.9539): 1142.5 ± 2.3 kg/m3
- mass density (298.15 K, x1 = 1): 1149.04 ± 2.5 kg/m3
- speed of sound (298.15 K, x1 = 0.0497): 1186.5 ± 1.4 m/s
- speed of sound (298.15 K, x1 = 0.101): 1225.5 ± 1.4 m/s
- speed of sound (298.15 K, x1 = 0.201): 1296.4 ± 1.6 m/s
- speed of sound (298.15 K, x1 = 0.3009): 1381.3 ± 1.7 m/s
- speed of sound (298.15 K, x1 = 0.4057): 1442.3 ± 1.9 m/s
- speed of sound (298.15 K, x1 = 0.4946): 1502.9 ± 2.1 m/s
- speed of sound (298.15 K, x1 = 0.603): 1575.6 ± 2.3 m/s
- speed of sound (298.15 K, x1 = 0.6765): 1620.4 ± 2.4 m/s
- speed of sound (298.15 K, x1 = 0.7918): 1679.8 ± 2.7 m/s
- speed of sound (298.15 K, x1 = 0.8825): 1727.5 ± 2.9 m/s
- speed of sound (298.15 K, x1 = 0.9539): 1769.9 ± 3.1 m/s
- speed of sound (298.15 K, x1 = 1): 1790.7 ± 3.2 m/s
- mass density (300.65 K, x1 = 0.0497): 819.712 ± 0.7 kg/m3
- mass density (300.65 K, x1 = 0.101): 852.887 ± 0.59 kg/m3
- mass density (300.65 K, x1 = 0.201): 907.8 ± 0.55 kg/m3
- mass density (300.65 K, x1 = 0.3009): 955.132 ± 0.53 kg/m3
- mass density (300.65 K, x1 = 0.4057): 997.306 ± 0.59 kg/m3
- mass density (300.65 K, x1 = 0.4946): 1028.07 ± 0.72 kg/m3
- mass density (300.65 K, x1 = 0.603): 1060.96 ± 0.98 kg/m3
- mass density (300.65 K, x1 = 0.6765): 1080.8 ± 1.2 kg/m3
- mass density (300.65 K, x1 = 0.7918): 1108.76 ± 1.6 kg/m3
- mass density (300.65 K, x1 = 0.8825): 1128.15 ± 2 kg/m3
- mass density (300.65 K, x1 = 0.9539): 1141.04 ± 2.3 kg/m3
- mass density (300.65 K, x1 = 1): 1147.63 ± 2.5 kg/m3
- speed of sound (300.65 K, x1 = 0.0497): 1178.2 ± 1.4 m/s
- speed of sound (300.65 K, x1 = 0.101): 1217.5 ± 1.4 m/s
- speed of sound (300.65 K, x1 = 0.201): 1288.8 ± 1.6 m/s
- speed of sound (300.65 K, x1 = 0.3009): 1374.2 ± 1.7 m/s
- speed of sound (300.65 K, x1 = 0.4057): 1435.3 ± 1.9 m/s
- speed of sound (300.65 K, x1 = 0.4946): 1496.2 ± 2.1 m/s
- speed of sound (300.65 K, x1 = 0.603): 1569.2 ± 2.3 m/s
- speed of sound (300.65 K, x1 = 0.6765): 1614.2 ± 2.4 m/s
- speed of sound (300.65 K, x1 = 0.7918): 1673.3 ± 2.7 m/s
- speed of sound (300.65 K, x1 = 0.8825): 1720.9 ± 2.9 m/s
- speed of sound (300.65 K, x1 = 0.9539): 1762.4 ± 3.1 m/s
- speed of sound (300.65 K, x1 = 1): 1784.8 ± 3.2 m/s
- mass density (303.15 K, x1 = 0.0497): 817.614 ± 0.71 kg/m3
- mass density (303.15 K, x1 = 0.101): 850.864 ± 0.6 kg/m3
- mass density (303.15 K, x1 = 0.201): 905.897 ± 0.55 kg/m3
- mass density (303.15 K, x1 = 0.3009): 953.327 ± 0.53 kg/m3
- mass density (303.15 K, x1 = 0.4057): 995.593 ± 0.59 kg/m3
- mass density (303.15 K, x1 = 0.4946): 1026.43 ± 0.72 kg/m3
- mass density (303.15 K, x1 = 0.603): 1059.37 ± 0.97 kg/m3
- mass density (303.15 K, x1 = 0.6765): 1079.28 ± 1.2 kg/m3
- mass density (303.15 K, x1 = 0.7918): 1107.26 ± 1.6 kg/m3
- mass density (303.15 K, x1 = 0.8825): 1126.69 ± 2 kg/m3
- mass density (303.15 K, x1 = 0.9539): 1139.62 ± 2.3 kg/m3
- mass density (303.15 K, x1 = 1): 1146.22 ± 2.5 kg/m3
- speed of sound (303.15 K, x1 = 0.0497): 1170 ± 1.4 m/s
- speed of sound (303.15 K, x1 = 0.101): 1209.5 ± 1.4 m/s
- speed of sound (303.15 K, x1 = 0.201): 1281.2 ± 1.6 m/s
- speed of sound (303.15 K, x1 = 0.3009): 1367 ± 1.7 m/s
- speed of sound (303.15 K, x1 = 0.4057): 1428.4 ± 1.9 m/s
- speed of sound (303.15 K, x1 = 0.4946): 1489.6 ± 2.1 m/s
- speed of sound (303.15 K, x1 = 0.603): 1562.8 ± 2.3 m/s
- speed of sound (303.15 K, x1 = 0.6765): 1608 ± 2.4 m/s
- speed of sound (303.15 K, x1 = 0.7918): 1667 ± 2.7 m/s
- speed of sound (303.15 K, x1 = 0.8825): 1714.5 ± 2.9 m/s
- speed of sound (303.15 K, x1 = 0.9539): 1755.4 ± 3.1 m/s
- speed of sound (303.15 K, x1 = 1): 1779 ± 3.2 m/s
- mass density (305.65 K, x1 = 0.0497): 815.509 ± 0.71 kg/m3
- mass density (305.65 K, x1 = 0.101): 848.835 ± 0.6 kg/m3
- mass density (305.65 K, x1 = 0.201): 903.988 ± 0.55 kg/m3
- mass density (305.65 K, x1 = 0.3009): 951.519 ± 0.53 kg/m3
- mass density (305.65 K, x1 = 0.4057): 993.881 ± 0.59 kg/m3
- mass density (305.65 K, x1 = 0.4946): 1024.78 ± 0.72 kg/m3
- mass density (305.65 K, x1 = 0.603): 1057.78 ± 0.97 kg/m3
- mass density (305.65 K, x1 = 0.6765): 1077.76 ± 1.2 kg/m3
- mass density (305.65 K, x1 = 0.7918): 1105.75 ± 1.6 kg/m3
- mass density (305.65 K, x1 = 0.8825): 1125.23 ± 2 kg/m3
- mass density (305.65 K, x1 = 0.9539): 1138.2 ± 2.3 kg/m3
- mass density (305.65 K, x1 = 1): 1144.8 ± 2.5 kg/m3
